The values that follow come from US9739765B2, “Metal-based covalent viability reagent for single cell analysis” (The Board of Trustees of the Leland Stanford Junior …, priority 2013, dated 2017).

In one assay the test system is KG-1 cells. As to the kind of experiment: Cisplatin viability labeling of partially heat-killed KG-1 cells, mass cytometry. Format: cell-based, human. As to conditions: KG-1 cells spiked with approximately 30% heat-killed cells; 1 min cisplatin at 10, 50, or 250 μM (all doses). The method, then: Generation of non-viable control cells. To generate samples with known amounts of non-viable cells, an aliquot of cultured cells was heat-killed at 55° C. for 1 hour, cooled to 37° C. and then spiked into each culture of viable cells at known percentages based on Trypan blue exclusion staining. Samples were then prepared for fluorescence and mass cytometry and the live/dead ratio of cells determined by each technology.
Cisplatin exposure. Cisplatin (WR International, Radnor, Pa., Cat #89150-634) was stored at −80° C. as a stock solution of 100 mM in DMSO (Hybrimax, Sigma Aldrich, St Louis, Mo.). Working solutions (10 mM) were prepared fresh on the day of each experiment by diluting the stock solution into PBS at 4° C. […]
(§1) Mass cytometry measurement. Cells were analyzed on a CyTOF® mass cytometer (DVS Sciences, Richmond Hill, Ontario, Canada). […] Cells were measured at approximately 500 cells per second, noise reduction was activated and cell extraction parameters were set to: Cell length, range was set from 10 to 65 pushes, and the lower convolution threshold was set to 10.
Comparison between fluorescence and mass cytometry protocols. […] In the first experiment a suspension of human myeloid KG-1 cells spiked with approximately 30% of heat-killed KG-1 cells (determined by Trypan blue extrusion), was tested with Aqua and cisplatin. […]

Assay [1] has as its system Jurkat, KG-1, HeLa, OVCAR3 cell lines. The assay can be described thus: Cisplatin viability labeling of suspension and adherent cell lines spiked with heat-killed cells, mass cytometry. In kind it is cell-based. The method, then:
Cell culture. The cancer cell lines Jurkat (T acute lymphoblastic leukemia suspension cells) and OVCAR-3 (ovarian carcinoma adherent cells) were cultured in RPMI-1640 (GIBCO, Invitrogen, Carlsbad, Calif.) with 10% heat-inactivated fetal bovine serum (FBS), 2 mM L-glutamine and 100 U/ml penicillin. The suspension cell lines KG-1 (acute myeloid leukemia) and HL-60 (acute myeloid leukemia cells) were cultured in IMDM (GIBCO, Invitrogen, Carlsbad, Calif.) with 20% heat-inactivated FBS and 100 U/ml penicillin. The adherent cell line HeLa (cervical carcinoma) was cultured in DMEM (GIBCO, Invitrogen, Carlsbad, Calif.) with 10% heat-inactivated FBS and 100 U/ml penicillin. All cell lines were maintained at 37° C. in a humidified 5.0% CO2 environment. Peripheral blood from healthy donors was purchased from the Stanford Blood Bank according to an IRB-approved protocol. […] Samples were then prepared for fluorescence and mass cytometry and the live/dead ratio of cells determined by each technology. […] Cells were analyzed on a CyTOF® mass cytometer (DVS Sciences, Richmond Hill, Ontario, Canada). […] Cells were measured at approximately 500 cells per second, noise reduction was activated and cell extraction parameters were set to: Cell length, range was set from 10 to 65 pushes, and the lower convolution threshold was set to 10. […]

The subject of assay [2] is phosphorylation of SLP-76 (Y128) and SLP-65 in PBMCs. As to the kind of experiment: Pervanadate stimulation of cisplatin-labeled PBMCs, pSLP-76/65 signaling. In kind it is cell-based. As to conditions: myeloid cells, T cells and B cells of PBMCs; 125 μM, 15 min. As to the method:
Pervanadate stimulation of PBMCs. Frozen PBMCs were thawed at 37° C. and resuspended in RPMI-1640/10% FBS/2 mM EDTA. A fraction of the PBMCs (30%) was heat-killed separately and spiked back in, as described above. Cells were treated with cisplatin according to the standard protocol described above, at 10^6 cells/ml. Samples were then treated with activated sodium orthovanadate at a final concentration of 125 μM for 15 min at 37° C. Cells were fixed with 1.6% (final concentration) PFA for 10 min at room temperature.
Antibody staining. […]
as §1
Cisplatin as a viability indicator for primary samples. […] Therefore to evaluate signaling in PBMCs, phosphorylation of SLP-76 (Y128) (T cells and myeloid cells) and SLP-65 (Y76) (B cells) was determined after a […] exposure to vanadate, a global tyrosine phosphatase inhibitor, shown to increase intracellular kinase activity and phosphotyrosine levels.

For `N.N.[Cl][Pt][Cl]` [cisplatin, Cisplatin [Pt(NH3)2Cl]], in the assay on KG-1 cells, the “frequency of cisplatin positive (dead) cells” value was 26-28%. Also, in assay [1] (1-minute pulse protocol, routinely observed (FIG. 2-5)), the “signal-to-noise ratios separating live and dead cells” value is on record as “greater than 10 fold”. Also, the “signal-to-noise ratios, cisplatin-high (dead) vs cisplatin-low (live) populations” value in assay [1] (each cisplatin concentration (10, 50, 250 μM), HeLa, OVCAR3, Jurkat, KG-1) is “above 10”.
Consider “activated sodium orthovanadate [pervanadate]”, for which, in assay [2], the “SLP-76/65 phosphorylation in response to pervanadate, cisplatin-high populations” value was “no response” and the “SLP-76/65 phosphorylation in response to pervanadate, cisplatin-low populations” value is on record as “strong increase”.
